Where two headings read alike, the source gives them in different places. Where a SMILES comes first, the peptide text is derived from it. [ ]: non-standard residue; d: D form. Cha = N[C@@H](CC1CCCCC1)C(=O)O
Experiments:
PTHR-delNt = target: T1, PTHR-delNt (Homo sapiens, UniProt Q03431, DEL24-181); test: Competition binding in COS-7 cell membranes with 125I-[Aib1,3,M]PTH(1-15)NH2 tracer; conditions: COS-7 membranes cotransfected with negative-dominant Gαs, read-out: PTHR-delNT (COS-7) IC50
T1 construct: expressed in transfected cells; host or cells: COS-7 cells, transient co-transfection; membranes prepared
T1 sequence (Q03431 with tags, fused parts or gaps DEL24-181): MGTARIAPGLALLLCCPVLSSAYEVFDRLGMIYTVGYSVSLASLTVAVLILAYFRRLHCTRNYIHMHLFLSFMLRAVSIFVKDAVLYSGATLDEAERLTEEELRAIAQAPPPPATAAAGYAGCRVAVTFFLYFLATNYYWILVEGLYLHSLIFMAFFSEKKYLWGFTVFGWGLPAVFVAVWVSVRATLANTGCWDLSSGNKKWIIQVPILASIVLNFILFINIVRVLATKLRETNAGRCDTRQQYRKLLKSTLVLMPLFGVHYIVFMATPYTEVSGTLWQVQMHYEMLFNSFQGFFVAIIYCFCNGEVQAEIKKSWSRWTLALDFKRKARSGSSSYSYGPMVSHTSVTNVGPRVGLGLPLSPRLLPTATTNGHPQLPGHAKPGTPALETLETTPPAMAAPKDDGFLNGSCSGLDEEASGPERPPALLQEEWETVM
Outline: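 IC50 from four-parameter logistic fitting of specific tracer binding, extrapolated to maximal [Aib1,3,M]PTH(1-15)NH2 inhibition when displacement was incomplete. Competitor peptides (3×10^−9 to 1×10^−5 M) and 125I-[Aib1,3,M]PTH(1-15)NH2 were incubated 90 min, 21 °C, with membranes (20 µg/well) of COS-7 cells expressing N-terminally truncated (Δ24–181) human PTHR with dominant-negative Gαs; 1×10^−6 M unlabeled tracer peptide defined non-specific binding.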

[1] = Circular dichroism spectroscopy, helical residues per peptide chain; format: physicochemical; conditions: calculated from [θ]222
Outline: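 Helical residue count per peptide chain derived from 222 nm mean residue ellipticity via −[θ]222×30/28,000. Spectra taken at 20 °C as four-scan averages, with concentrations verified by absorbance at 280 nm (single tryptophan, 5700 M^−1).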

ROS 17/2.8 cells = target: T2, ROS 17/2.8 cells (Rattus norvegicus, UniProt P25961); conditions: position-20 substitutions in PTH(1-31)NH2; cited from earlier work
T2 construct: ROS 17/2.8 cells are rat osteosarcoma cells and express the endogenous PTHR; host or cells: ROS 17/2.8 cells
T2 sequence (P25961 27-591): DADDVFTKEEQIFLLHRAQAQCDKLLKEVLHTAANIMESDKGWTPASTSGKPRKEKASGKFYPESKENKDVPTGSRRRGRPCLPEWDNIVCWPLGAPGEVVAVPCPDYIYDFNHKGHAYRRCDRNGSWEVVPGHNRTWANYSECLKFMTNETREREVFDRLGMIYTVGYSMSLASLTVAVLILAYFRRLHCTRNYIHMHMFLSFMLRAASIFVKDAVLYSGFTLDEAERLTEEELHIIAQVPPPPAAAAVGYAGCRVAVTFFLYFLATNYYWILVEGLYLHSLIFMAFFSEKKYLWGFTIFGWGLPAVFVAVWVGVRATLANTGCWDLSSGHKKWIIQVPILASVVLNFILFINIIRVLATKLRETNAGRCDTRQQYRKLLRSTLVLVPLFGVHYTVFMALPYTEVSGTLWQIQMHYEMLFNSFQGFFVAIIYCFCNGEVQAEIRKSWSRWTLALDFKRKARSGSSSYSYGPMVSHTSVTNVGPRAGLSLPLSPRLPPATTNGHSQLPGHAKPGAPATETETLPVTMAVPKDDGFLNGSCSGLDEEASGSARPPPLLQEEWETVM

[2] = [Ala1,Arg19]hPTH(1-31)NH2 analogs

SMILES	IC50 (PTHR-delNt; hPTH(1-31)NH2 analogs)	CD helical residues ([1]; hPTH(1-31)NH2 analogs)	reduction of cAMP-stimulating potency (ROS 17/2.8 cells)	IC50 (PTHR-delNt; [2])	CD helical residues [1, 2]
CC[C@H](C)[C@H](NC(=O)[C@H](CCC(=O)O)NC(=O)[C@H](CO)NC(=O)[C@@H](NC(=O)[C@@H](N)CO)C(C)C)C(=O)N[C@@H](CCC(N)=O)C(=O)N[C@@H](CC(C)C)C(=O)N[C@@H](CCSC)C(=O)N[C@@H](Cc1c[nH]cn1)C(=O)N[C@@H](CC(N)=O)C(=O)N[C@@H](CC(C)C)C(=O)NCC(=O)N[C@@H](CCCCN)C(=O)N[C@@H](Cc1c[nH]cn1)C(=O)N[C@@H](CC(C)C)C(=O)N[C@@H](CC(N)=O)C(=O)N[C@@H](CO)C(=O)N[C@@H](CCSC)C(=O)N[C@@H](CCC(=O)O)C(=O)N[C@@H](CCCNC(N)=O)C(=O)N[C@H](C(=O)N[C@@H](CCC(=O)O)C(=O)N[C@@H](Cc1c[nH]c2ccccc12)C(=O)N[C@@H](CC(C)C)C(=O)N[C@@H](CCCNC(=N)N)C(=O)N[C@@H](CCCCN)C(=O)N[C@@H](CCCCN)C(=O)N[C@@H](CC(C)C)C(=O)N[C@@H](CCC(N)=O)C(=O)N[C@@H](CC(=O)O)C(=O)N[C@H](C(N)=O)C(C)C)C(C)C [Arg^20→Cit]	10600 nM	9	8 fold		
CC[C@H](C)[C@H](NC(=O)[C@H](CCC(=O)O)NC(=O)[C@H](CO)NC(=O)[C@@H](NC(=O)[C@H](C)N)C(C)C)C(=O)N[C@@H](CCC(N)=O)C(=O)N[C@@H](CC(C)C)C(=O)N[C@@H](CCSC)C(=O)N[C@@H](Cc1c[nH]cn1)C(=O)N[C@@H](CC(N)=O)C(=O)N[C@@H](CC(C)C)C(=O)NCC(=O)N[C@@H](CCCCN)C(=O)N[C@@H](Cc1c[nH]cn1)C(=O)N[C@@H](CC(C)C)C(=O)N[C@@H](CC(N)=O)C(=O)N[C@@H](CO)C(=O)N[C@@H](CCSC)C(=O)N[C@@H](CC1CCCCC1)C(=O)N[C@@H](CCCNC(=N)N)C(=O)N[C@H](C(=O)N[C@@H](CCC(=O)O)C(=O)N[C@@H](Cc1c[nH]c2ccccc12)C(=O)N[C@@H](CC(C)C)C(=O)N[C@@H](CCCNC(=N)N)C(=O)N[C@@H](CCCCN)C(=O)N[C@@H](CCCCN)C(=O)N[C@@H](CC(C)C)C(=O)N[C@@H](CCC(N)=O)C(=O)N[C@@H](CC(=O)O)C(=O)N[C@H](C(N)=O)C(C)C)C(C)C [Arg^19→Cha] (H-AVSEIQLMHNLGKHLNSM[Cha]RVEWLRKKLQDV-NH2; N-terminus assumed)				780 ± 83 nM	10
CC[C@H](C)[C@H](NC(=O)[C@H](CCC(=O)O)NC(=O)[C@H](CO)NC(=O)[C@@H](NC(=O)[C@H](C)N)C(C)C)C(=O)N[C@@H](CCC(N)=O)C(=O)N[C@@H](CC(C)C)C(=O)N[C@@H](CCSC)C(=O)N[C@@H](Cc1c[nH]cn1)C(=O)N[C@@H](CC(N)=O)C(=O)N[C@@H](CC(C)C)C(=O)NCC(=O)N[C@@H](CCCCN)C(=O)N[C@@H](Cc1c[nH]cn1)C(=O)N[C@@H](CC(C)C)C(=O)N[C@@H](CC(N)=O)C(=O)N[C@@H](CO)C(=O)N[C@@H](CC1CCCCC1)C(=O)N[C@@H](CCCNC(=N)N)C(=O)N[C@@H](CCCNC(=N)N)C(=O)N[C@H](C(=O)N[C@@H](CCC(=O)O)C(=O)N[C@@H](Cc1c[nH]c2ccccc12)C(=O)N[C@@H](CC(C)C)C(=O)N[C@@H](CCCNC(=N)N)C(=O)N[C@@H](CCCCN)C(=O)N[C@@H](CCCCN)C(=O)N[C@@H](CC(C)C)C(=O)N[C@@H](CCC(N)=O)C(=O)N[C@@H](CC(=O)O)C(=O)N[C@H](C(N)=O)C(C)C)C(C)C [Met^18→Cha] (H-AVSEIQLMHNLGKHLNS[Cha]RRVEWLRKKLQDV-NH2; N-terminus assumed)				408 ± 32 nM	8
CC[C@H](C)[C@H](NC(=O)[C@H](CCC(=O)O)NC(=O)[C@H](CO)NC(=O)[C@@H](NC(=O)[C@H](C)N)C(C)C)C(=O)N[C@@H](CCC(N)=O)C(=O)N[C@@H](CC(C)C)C(=O)N[C@@H](CCSC)C(=O)N[C@@H](Cc1c[nH]cn1)C(=O)N[C@@H](CC(N)=O)C(=O)N[C@@H](CC(C)C)C(=O)NCC(=O)N[C@@H](CCCCN)C(=O)N[C@@H](Cc1c[nH]cn1)C(=O)N[C@@H](CC(C)C)C(=O)N[C@@H](CC(N)=O)C(=O)N[C@@H](CO)C(=O)N[C@@H](CCSC)C(=O)N[C@@H](CCCNC(=N)N)C(=O)N[C@@H](CCCNC(=N)N)C(=O)N[C@@H](CC1CCCCC1)C(=O)N[C@@H](CCC(=O)O)C(=O)N[C@@H](Cc1c[nH]c2ccccc12)C(=O)N[C@@H](CC(C)C)C(=O)N[C@@H](CCCNC(=N)N)C(=O)N[C@@H](CCCCN)C(=O)N[C@@H](CCCCN)C(=O)N[C@@H](CC(C)C)C(=O)N[C@@H](CCC(N)=O)C(=O)N[C@@H](CC(=O)O)C(=O)N[C@H](C(N)=O)C(C)C [Val^21→Cha] (H-AVSEIQLMHNLGKHLNSMRR[Cha]EWLRKKLQDV-NH2; N-terminus assumed)				564 ± 172 nM	9
